{
  "source": "patent US11964971B2",
  "about": "“Methods and compositions for modulating splicing” (Skyhawk Therapeutics, Inc., priority 2019, dated 2024)",
  "key": {"MDR1": {"test_system": "MDR1", "assay": "in vitro", "conditions": "dog; for Papp B→A at 120 min, 5 μM: MDCK-MDR1, pH 7.4, MDCK-MDR1: Papp B-A (10^−6, cm/s); for Papp A→B at 120 min, 5 μM: MDCK-MDR1, pH 7.4, MDCK-MDR1: Papp A-B (10^−6, cm/s)"}, "MDR1 (P-gp)": {"test_system": "MDR1 (P-gp)", "assay": "MDCK-MDR1 permeability assay, blood-brain-barrier penetration potential", "conditions": "dog, MDCK-MDR1, pH 7.4, MDCK-MDR1 Efflux Ratio"}, "SMN protein": {"test_system": "SMN protein", "assay": "SMN protein assay (MSD) in SMA patient fibroblasts (GM03813)", "assay_type": "cell-based, human", "experimental": "Compounds are tested on spinal muscular atrophy (SMA) patient fibroblasts (GM03813, Coriell) at doses ranging from 2.5 μM to 0.6 nM. 7000 cells/well are seeded in 96-well plates. Compounds are incubated for 48 hours and the cells were lysed with 100 μL of lysis buffer. 20 μL of lysate is used for SMN protein measurement by Mesoscale Discovery (MSD) assay developed by PharmOptima (Michigan). A standard curve prepared with SMN protein ranging from […] is used in each MSD plate to calculate the absolute SMN protein amount in each sample."}, "[1]": {"test_system": "MDR1-MDCK cell monolayers", "conditions": "dog, MDCK-MDR1, 120 min, 5 μM, pH 7.4"}},
  "data": [
    {"smiles": "CN(c1cnc(-c2cc(F)c(-c3ccn(C)c(=O)c3)cc2O)cn1)[C@@H]1CC2CC[C@H](N2)[C@@H]1F", "note": "(single isomer, unassigned) [Compound 13E1]", "values": [
      {"measurement": "Papp B→A at 120 min, 5 μM", "setting": "MDR1", "value": 106, "unit": "×10⁻⁶ cm/s"},
      {"measurement": "efflux ratio at 120 min, 5 μM", "setting": "MDR1 (P-gp)", "value": 49},
      {"measurement": "EC50", "setting": "SMN protein", "value": "101 to 500", "unit": "nM"},
      {"measurement": "MDCK-MDR1: % Recov A-B (%)", "setting": "[1]", "value": 454, "unit": "%"}
    ]},
    {"smiles": "COc1cc(-c2ccc(-c3cnc(N(C)[C@@H]4C[C@@]5(C)CCC[C@](C)(N5)[C@@H]4F)cn3)c(O)c2)cnn1", "note": "[Compound 24E1, 2-(5-(((1S,2R,3R,5R)-2-fluoro-1,5-dimethyl-9-azabicyclo[3.3.1]nonan-3-yl)(methyl)amino)pyrazin-2-yl)-5-(6-methoxypyridazin-4-yl)phenol]", "values": [
      {"measurement": "Papp A→B at 120 min, 5 μM", "setting": "MDR1", "value": 1.93, "unit": "×10⁻⁶ cm/s"},
      {"measurement": "Papp B→A at 120 min, 5 μM", "setting": "MDR1", "value": 5.01, "unit": "×10⁻⁶ cm/s"},
      {"measurement": "efflux ratio at 120 min, 5 μM", "setting": "MDR1 (P-gp)", "value": 3},
      {"measurement": "EC50", "setting": "SMN protein", "value": "101 to 500", "unit": "nM"},
      {"measurement": "MDCK-MDR1: % Recov A-B (%)", "setting": "[1]", "value": 40, "unit": "%"},
      {"measurement": "MDCK-MDR1: % Recov B-A (%)", "setting": "[1]", "value": 42, "unit": "%"}
    ]},
    {"smiles": "CN(c1cnc(-c2ccc(-c3cn[nH]c3)cc2O)cn1)[C@H]1CC2CC(F)(F)[C@H](C1)N2", "note": "(single isomer, unassigned) [Compound 9E2]", "values": [
      {"measurement": "Papp A→B at 120 min, 5 μM", "setting": "MDR1", "value": 19.9, "unit": "×10⁻⁶ cm/s"},
      {"measurement": "Papp B→A at 120 min, 5 μM", "setting": "MDR1", "value": 55.4, "unit": "×10⁻⁶ cm/s"},
      {"measurement": "efflux ratio at 120 min, 5 μM", "setting": "MDR1 (P-gp)", "value": 3},
      {"measurement": "EC50", "setting": "SMN protein", "value": "16 to 50", "unit": "nM"},
      {"measurement": "MDCK-MDR1: % Recov A-B (%)", "setting": "[1]", "value": 71, "unit": "%"},
      {"measurement": "MDCK-MDR1: % Recov B-A (%)", "setting": "[1]", "value": 90, "unit": "%"}
    ]},
    {"smiles": "COc1cc(-c2cc(O)c(-c3cnc(N(C)[C@@H]4C[C@@]5(C)CC[C@](C)(N5)[C@@H]4F)cn3)cc2F)cnn1", "note": "(single isomer, unassigned) [Compound 64E1]", "values": [
      {"measurement": "Papp A→B at 120 min, 5 μM", "setting": "MDR1", "value": 3.97, "unit": "×10⁻⁶ cm/s"},
      {"measurement": "Papp B→A at 120 min, 5 μM", "setting": "MDR1", "value": 49.8, "unit": "×10⁻⁶ cm/s"},
      {"measurement": "efflux ratio at 120 min, 5 μM", "setting": "MDR1 (P-gp)", "value": 13},
      {"measurement": "EC50", "setting": "SMN protein", "value": "501 to 10000", "unit": "nM"},
      {"measurement": "MDCK-MDR1: % Recov A-B (%)", "setting": "[1]", "value": 71, "unit": "%"},
      {"measurement": "MDCK-MDR1: % Recov B-A (%)", "setting": "[1]", "value": 80, "unit": "%"}
    ]},
    {"smiles": "Cn1ccc(-c2ccc(-c3cnc(N(C4CC4)[C@@H]4CC5CC[C@H](N5)[C@@H]4F)cn3)c(O)c2)cc1=O", "note": "(single isomer, unassigned) [Compound 53E1]", "values": [
      {"measurement": "Papp A→B at 120 min, 5 μM", "setting": "MDR1", "value": 1.51, "unit": "×10⁻⁶ cm/s"},
      {"measurement": "Papp B→A at 120 min, 5 μM", "setting": "MDR1", "value": 50.9, "unit": "×10⁻⁶ cm/s"},
      {"measurement": "efflux ratio at 120 min, 5 μM", "setting": "MDR1 (P-gp)", "value": 34},
      {"measurement": "EC50", "setting": "SMN protein", "value": "501 to 10000", "unit": "nM"},
      {"measurement": "MDCK-MDR1: % Recov A-B (%)", "setting": "[1]", "value": 71, "unit": "%"},
      {"measurement": "MDCK-MDR1: % Recov B-A (%)", "setting": "[1]", "value": 71, "unit": "%"}
    ]},
    {"smiles": "CN(c1cnc(-c2ccc(-c3cnn(C)c3)cc2O)cn1)[C@@H]1CC2COC[C@H](N2)[C@@H]1F", "note": "(single isomer, unassigned) [Compound 73E1]", "values": [
      {"measurement": "Papp A→B at 120 min, 5 μM", "setting": "MDR1", "value": 11.5, "unit": "×10⁻⁶ cm/s"},
      {"measurement": "Papp B→A at 120 min, 5 μM", "setting": "MDR1", "value": 38.1, "unit": "×10⁻⁶ cm/s"},
      {"measurement": "efflux ratio at 120 min, 5 μM", "setting": "MDR1 (P-gp)", "value": 3},
      {"measurement": "EC50", "setting": "SMN protein", "value": "101 to 500", "unit": "nM"},
      {"measurement": "MDCK-MDR1: % Recov A-B (%)", "setting": "[1]", "value": 50, "unit": "%"},
      {"measurement": "MDCK-MDR1: % Recov B-A (%)", "setting": "[1]", "value": 71, "unit": "%"}
    ]},
    {"smiles": "COc1cc(-c2ccc(-c3cnc(N(C)[C@H]4C[C@]5(C)CCC[C@@](C)(N5)[C@H]4F)cn3)c(O)c2)cnn1", "note": "[Compound 24E2, 2-(5-(((1R,2S,3S,5S)-2-fluoro-1,5-dimethyl-9-azabicyclo[3.3.1]nonan-3-yl)(methyl)amino)pyrazin-2-yl)-5-(6-methoxypyridazin-4-yl)phenol]", "values": [
      {"measurement": "Papp A→B at 120 min, 5 μM", "setting": "MDR1", "value": 3.01, "unit": "×10⁻⁶ cm/s"},
      {"measurement": "Papp B→A at 120 min, 5 μM", "setting": "MDR1", "value": 6.99, "unit": "×10⁻⁶ cm/s"},
      {"measurement": "efflux ratio at 120 min, 5 μM", "setting": "MDR1 (P-gp)", "value": 2},
      {"measurement": "EC50", "setting": "SMN protein", "value": "501 to 10000", "unit": "nM"},
      {"measurement": "MDCK-MDR1: % Recov A-B (%)", "setting": "[1]", "value": 37, "unit": "%"},
      {"measurement": "MDCK-MDR1: % Recov B-A (%)", "setting": "[1]", "value": 44, "unit": "%"}
    ]},
    {"smiles": "CN(c1cnc(-c2ccc(C3=CC(=O)NC3)cc2O)cn1)[C@@H]1CC2CC[C@H](N2)[C@@H]1F", "note": "(single isomer, unassigned) [Compound 78E1]", "values": [
      {"measurement": "Papp A→B at 120 min, 5 μM", "setting": "MDR1", "value": 0.77, "unit": "×10⁻⁶ cm/s"},
      {"measurement": "Papp B→A at 120 min, 5 μM", "setting": "MDR1", "value": 41, "unit": "×10⁻⁶ cm/s"},
      {"measurement": "efflux ratio at 120 min, 5 μM", "setting": "MDR1 (P-gp)", "value": 53},
      {"measurement": "EC50", "setting": "SMN protein", "value": "501 to 10000", "unit": "nM"},
      {"measurement": "MDCK-MDR1: % Recov A-B (%)", "setting": "[1]", "value": 81, "unit": "%"},
      {"measurement": "MDCK-MDR1: % Recov B-A (%)", "setting": "[1]", "value": 85, "unit": "%"}
    ]},
    {"smiles": "CN(c1cnc(-c2ccc(-c3cn[nH]c3)cc2O)cn1)[C@@H]1C[C@@]2(C)CCC[C@](C)(N2)[C@@H]1F", "note": "[Compound 23E1, 2-(5-(((1S,2R,3R,5R)-2-fluoro-1,5-dimethyl-9-azabicyclo[3.3.1]nonan-3-yl)(methyl)amino)pyrazin-2-yl)-5-(1H-pyrazol-4-yl)phenol]", "values": [
      {"measurement": "Papp A→B at 120 min, 5 μM", "setting": "MDR1", "value": 9.07, "unit": "×10⁻⁶ cm/s"},
      {"measurement": "Papp B→A at 120 min, 5 μM", "setting": "MDR1", "value": 38.7, "unit": "×10⁻⁶ cm/s"},
      {"measurement": "efflux ratio at 120 min, 5 μM", "setting": "MDR1 (P-gp)", "value": 4},
      {"measurement": "EC50", "setting": "SMN protein", "value": "501 to 10000", "unit": "nM"},
      {"measurement": "MDCK-MDR1: % Recov A-B (%)", "setting": "[1]", "value": 56, "unit": "%"},
      {"measurement": "MDCK-MDR1: % Recov B-A (%)", "setting": "[1]", "value": 78, "unit": "%"}
    ]}
  ]
}
